US20230012368A1 (Hoffmann-La Roche Inc., priority 2018, published 2023)
Counter-ions that a name gives are not always drawn.

These compounds were tested on Acinetobacter baumannii ATCC 17978 (assay: Antimicrobial susceptibility testing: 90% growth inhibitory concentration (IC90) determination). Settings: 90% growth inhibitory concentration; Acinetobacter baumannii ATCC17978; Iso-Sensitest broth, OD 600 nm over 16h; read-out: ATCC17978 IC90.
Type: cell-based
Procedure, shortened: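 Growth of the Acinetobacter baumannii strain was followed by optical density at 600 nm every 20 minutes for 16h at 35±2° C. Inoculum was ~5×10^(5) CFU/ml in Iso-Sensitest medium, with twofold compound dilutions (e.g. 50 to 0.097 μM final). The 90% inhibitory concentration was derived in log-phase growth.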

Compound | IC90 [nM]
tert-butyl 3-[[[4-[[3- [4- (difluoromethoxy) phenyl]imidazo[1,2- a]pyrazin-8- yl]amino]-2-methyl- benzoyl]amino] methyl] pyrrolidine-1- carboxylate [Example 47] | 1700
CCc1cc(Nc2nccn3c(-c4ccc(OC)c(F)c4F)cnc23)ccc1C(=O)N[C@@H](CCN)C(=O)OC [Example 322, methyl (2S)-4-amino-2-[[4-[[3-(2,3-difluoro-4-methoxyphenyl)imidazo[1,2-a]pyrazin-8-yl]amino]-2-ethylbenzoyl]amino]butanoate; hydrochloride] | 4400
CCc1cc(Nc2nccn3c(-c4ccc(Cl)c(F)c4F)cnc23)ccc1C(=O)N(C)CCCN [Example 282, N-(3-aminopropyl)-4-[[3-(4-chloro-2,3-difluorophenyl)imidazo[1,2-a]pyrazin-8-yl]amino]-2-ethyl-N-methylbenzamide; hydrochloride] | 1400
Cc1cc(Nc2nccn3c(-c4ccc(Cl)cc4)cnc23)ccc1C(=O)NCCCN [Example 236, N-(3-aminopropyl)-4-[[3-(4-chlorophenyl)imidazo[1,2-a]pyrazin-8-yl]amino]-2-methylbenzamide; hydrochloride] | 1400

Same assay, conditions: Acinetobacter baumannii, ATCC17978, 16 h, 90% growth inhibitory concentration; Acinetobacter baumannii ATCC17978; Iso-Sensitest broth, OD 600 nm over 16h; read-out: ATCC17978 IC90

Compound | IC90 [nM]
COc1ccc(-c2cnc3c(Nc4ccc(C(=O)NCCCCCCN)c(C)c4)nccn23)cc1 [Example 10, N-(6-aminohexyl)-4-((3-(4-methoxyphenyl)imidazo [1,2-a]pyrazin-8-yl)amino)-2-methylbenzamide hydrochloride] | 110
C=Cc1cc(Nc2nccn3c(-c4ccc(OC(F)F)cc4)cnc23)ccc1C(=O)N(C)CCN1CCNCC1 [Example 217, 4-[[3-[4-(difluoromethoxy)phenyl]im-idazo[1,2-a]pyrazin-8-yl]amino]-2-ethenyl-N-methyl-N-(2-piperazin-1-ylethyl)benzamide;hydrochlo-ride] | 840
COc1ccc(-c2cnc3c(Nc4ccc(C(=O)N[C@H](C)CNC(C)=N)c(Cl)c4)nccn23)c(F)c1F [Example 501, 2-chloro-4-[[3-(2,3-difluoro-4-methoxyphenyl)imidazo[1,2-a]pyrazin-8-yl]amino]-#N!- [(2#R!)-1-(ethanimidoylamino)propan-2-yl]benzamide] | 69
CCc1cc(Nc2nccn3c(-c4ccc(Oc5ncccn5)c(F)c4F)cnc23)ccc1C(=O)NCCCNC(=O)C1CCN(CC2CCNC2)CC1 (centres unmarked) [Example 545, N-(3-(4-((3-(2,3-difluoro-4-(pyrimidin-2-yloxy)phenyl)imidazo[1,2-a]pyrazin-8-yl)amino)-2-ethylbenzamido)propyl)-1-(pyrrolidin-3-ylmethyl)piperidine-4-carboxamide formate] | 310
COc1ccc(-c2cnc3c(Nc4ccc(C(=O)NCCCNC(=O)[C@@H]5C[C@@H](O)CN5)c(C)c4)nccn23)c(F)c1F [Example 358, (2S,4R)-N-[3-[[4-[[3-(2,3-difluoro-4-methoxyphenyl)imidazo[1,2-a]pyrazin-8-yl]amino]-2-methylbenzoyl]amino]propyl]-4-hydroxypyrrolidine-2-carboxamide] | 50
CCc1cc(Nc2nccn3c(-c4ccc(OCC#N)c(F)c4Cl)cnc23)ccc1C(=O)NCCNC(=O)[C@@H](N)CCCNC(=N)N [Example 330, N-[2-[[(2S)-2-amino-5-carbamimidamidopentanoyl]amino]ethyl]-4-[[3-[2-chloro-4-(cyanomethoxy)-3-fluorophenyl]imidazo[1,2-a]pyrazin-8-yl]amino]-2-ethylbenzamide;formic acid] | 110
CCc1cc(Nc2nccn3c(-c4ccc(OC)c(F)c4F)cnc23)ccc1C(=O)NCCNC(=O)[C@@H](N)CCCNC(=N)N [Example 121, N-[2-[[(2S)-2-amino-5-guanidino-pentanoyl]amino]ethyl]-4-[[3-(2,3-difluoro-4-methoxy-phenyl)imidazo[1,2-a]pyrazin-8-yl]amino]-2-ethyl-benzamide trifluoroacetate] | 280
Cc1cc(Nc2nccn3c(-c4ccc(OC(F)F)cc4)cnc23)ccc1C(=O)NCCCCNC(=N)N [Example 83, 4-((3-(4-(difluoromethoxy)phenyl)imidazo[1,2-a]pyrazin-8-yl)amino)-N-(4-guanidinobutyl)-2-methylbenzamide] | 250
CCc1cc(Nc2nccn3c(-c4ccc(OC)c(F)c4F)cnc23)ccc1C(=O)N[C@@H](C)C(=O)NCCNC [Example 567, 4-[[3-(2,3-difluoro-4-methoxy-phenyl)imidazo[1,2-a]pyrazin-8-yl]amino]-2-ethyl-N-[(1S)-1-methyl-2-[2-(methylamino)ethylamino]-2-oxo-ethyl]benzamide] | 650
C=Cc1cc(Nc2nccn3c(-c4ccc(OC(F)F)cc4)cnc23)ccc1C(=O)NCCN1CCNCC1 [Example 238, 4-[[3-[4-(difluoromethoxy)phenyl]im-idazo[1,2-a]pyrazin-8-yl]amino]-2-ethenyl-N-(2-piperazin-1-ylethyl)benzamide; hydrochlo-ride] | 1800
COc1ccc(-c2cnc3c(Nc4ccc(C(=O)N(C)Cc5ccncc5)c(C)c4)nccn23)cc1F [Example 73, 4-((3-(3-fluoro-4-methoxyphenyl)imidazo [1,2-a]pyrazin-8-yl)amino)-N,2-dimethyl-N-(pyridin-4-ylmethyl)benzamide] | 140
COc1ccc(-c2cnc3c(Nc4ccc(C(=O)N(C)CCN(C)C)cc4)nccn23)cc1Cl [Example 28, 4-((3-(3-chloro-4-methoxyphenyl)imidazo [1,2-a]pyrazin-8-yl)amino)-N-(2-(dimethylamino)ethyl)-N-methylbenzamide] | 3600
COc1ccc(-c2cnc3c(Nc4ccc(C(=O)N(C)CCn5ccnc5)c(C)c4)nccn23)cc1F [Example 105, 4-[[3-(3-fluoro-4-methoxy-phenyl)imidazo[1,2-a]pyrazin-8-yl]amino]-N-(2-imidazol-1-ylethyl)-N,2-dimethyl-benzamide] | 820
CCc1cc(Nc2nccn3c(-c4ccc(OC)c(F)c4F)cnc23)ccc1C(=O)NCC(O)CNC(=O)CN (centres unmarked) [Example 374, N-[3-[(2-aminoacetyl)amino]-2-hydroxypropyl]-4-[[3-(2,3-difluoro-4-methoxyphenyl)imidazo[1,2-a]pyrazin-8-yl]amino]-2-ethylbenzamide] | 190
CCc1cc(Nc2nccn3c(-c4ccc(OC)c(F)c4F)cnc23)ccc1C(=O)NCCCNC(=O)NCCCN [Example 120] | 140
COc1ccc(-c2cnc3c(Nc4ccc5c(c4)CCN(CCO)C5=O)nccn23)c(F)c1F [Example 302, 6-[[3-(2,3-difluoro-4-methoxyphenyl)imidazo[1,2-a]pyrazin-8-yl]amino]-2-(2-hydroxyethyl)-3,4-dihydroisoquinolin-1-one] | 300
CCc1cc(Nc2nccn3c(-c4ccc(OC)c(F)c4F)cnc23)ccc1C(=O)NCCN1CCC[C@H](N)C1=O [Example 347, N-[2-[(3S)-3-amino-2-oxopiperidin-1-yl]ethyl]-4-[[3-(2,3-difluoro-4-methoxyphenyl)imidazo[1,2-a]pyrazin-8-yl]amino]-2-ethylbenzamide] | 1100
Cc1cc(Nc2nccn3c(-c4ccc(OC(F)F)cc4)cnc23)ccc1C(=O)N(C)CCC1CCN(CCCC(=O)O)CC1 [Example 443, 4-(4-(2-(4-((3-(4-(difluoromethoxy)phenyl)im-idazo[1,2-a]pyrazin-8-yl)amino)-N,2-dimethylbenzamido)ethyl)piperidin-1-yl)butanoic acid hydrochloride] | 760
COc1ccc(-c2cnc3c(Nc4ccc(C(=O)N(C)CCCCC(=O)N5CCNCC5)c(C)c4)nccn23)cc1F [Example 273, 4-[[3-(3-fluoro-4-methoxyphenyl)imidazo[1,2-a]pyrazin-8-yl]amino]-N,2-dimethyl-N-(5-oxo-5-piperazin-1-ylpentyl)benzamide] | 180
COc1ccc(-c2cnc3c(Nc4ccc(C(=O)NCCN5CCNC(=O)C5)c(C)c4)nccn23)cc1F [Example 216, 4-[[3-(3-fluoro-4-methoxyphenyl)imidazo[1,2-a]pyrazin-8-yl]amino]-2-methyl-N-[2-(3-oxopiperazin-1-yl)ethyl]benzamide] | 770
CCc1cc(Nc2nccn3c(-c4ccc(OC(F)F)c(F)c4F)cnc23)ccc1C(=O)NCCNC(=O)[C@@H](N)CCCNC(=N)N [Example 333, N-[2-[[(2S)-2-amino-5-carbamimidamidopentanoyl]amino]ethyl]-4-[[3-[4-(difluoromethoxy)-2,3-difluorophenyl]imidazo[1,2-a]pyrazin-8-yl]amino]-2-ethylbenzamide;formic acid] | 340
COc1ccc(-c2cnc3c(Nc4ccc(C(=O)N[C@@H](C)CNC(C)=N)c(C)c4)nccn23)c(F)c1F [Example 488, 4-[[3-(2,3-difluoro-4-methoxyphenyl)imidazo[1,2-a]pyrazin-8-yl]amino]-#N!- [(2#S!)-1-(ethanimidoylamino)propan-2-yl]-2-methylbenzamide;formic acid] | 290
COc1ccc(-c2cnc3c(Nc4ccc(C(=O)NCC5CCNCC5)c(C)c4)nccn23)c(F)c1F [Example 55, 4-[[3-(2,3-difluoro-4-methoxy-phenyl)imidazo[1,2-a]pyrazin-8-yl]amino]-2-methyl-N-(4-piperidylmethyl) benzamide] | 260
COc1ccc(-c2cnc3c(Nc4ccc(C(=O)NCCCCCN5CCNCC5)c(C)c4)nccn23)cc1F [Example 272, 4-[[3-(3-fluoro-4-methoxyphenyl)imidazo[1,2-a]pyrazin-8-yl]amino]-2-methyl-N-(5-piperazin-1-ylpentyl)benzamide;hydrochlo-ride] | 120
COc1ccc(-c2cnc3c(Nc4ccc(C(=O)NCCNC(=O)N5CCN[C@@H](C(=O)O)C5)c(C)c4)nccn23)c(F)c1F [Example 352, (2R)-4-[2-[[4-[[3-(2,3-difluoro-4-methoxyphenyl)imidazo[1,2-a]pyrazin-8-yl]amino]-2-methylbenzoyl]amino]ethyl-carbamoyl]piperazine-2-carboxylic acid;formic acid] | 1300
